Our source for the pKa values is paper PMC2700827 (Journal of the American Chemical Society, 2008).

Like-named read-outs stand apart in the source and are kept apart here.

For data set [1] the following is noted: phenol pKa given in Figure 5 legend, source not given.
The conditions of data set [2]: hydrogen bond acceptor; cited from earlier work.

In data set [1], `Oc1c(F)cc(F)cc1F` [2,4,6-F3-phenol] registered a pKa of 7.2.

As to `O=[N+]([O-])c1cc[n+]([O-])cc1` [4-nitropyridine-N-oxide], in data set [2], the pKa is given as −1.7.

By pKa is commonly meant the negative logarithm of the acid dissociation constant.
